Measured values taken from patent US6437138B1, “3-pyridyloxymethyl heterocyclic ether compounds useful in controlling chemical synaptic transmission” (priority 1996, dated 2002).
Where a name gives a salt, the structure may show the parent alone.

| Compound | melting point |
| --- | --- |
| Clc1ncc(OC[C@@H]2CCN2)cc1-c1ccccc1 (as salt: salt) [Example 67, 5-Phenyl-6-chloro-3-(2-(S)-azetidinylmethoxy)pyridine Hidrochloride] | 148 to 150 °C |
| C=Cc1cncc(OC[C@@H]2CCCN2)c1.Cl.Cl [Example 164, 5-Ethenyl-3-(2-(S)-pyrrolidinylmethoxy)pyridine Dihydrochloride] | 97 °C (dec.) |
| Cl.Cl.Clc1ccc(-c2cncc(OC[C@H]3CCCN3)c2)cc1 [Example 139, 5-(4-Chlorophenyl)-3-(2-(R)-pyrrolidinylmethoxy)pyridine Dihydrochloride] | 183 to 185 °C |
| CC(C)(C)C=CC=Cc1cncc(OC[C@@H]2CCCN2)c1.Cl.Cl [Example 160, 5-(5,5-Dimethyl-1,3-hexadienyl)3-(2-(S)-pyrrolidinylmethoxy)pyridine Dihydrochloride] | 92 to 94 °C |
| CN1CCC[C@H]1COc1cnc(Cl)c(-c2ccc(Cl)cc2)c1.Cl.Cl [Example 151, 6-Chloro-5-(4-chlorophenyl)-3-(1-methyl-2-(S)-pyrrolidinylmethoxy)pyridine Dihydrochloride] | 183 to 185 °C |
| C=Cc1cncc(OC[C@@H]2CCCN2C)c1.Cl.Cl [Example 8, 5-Ethenyl-3-(1-methyl-2-(S)-pyrrolidinylmethoxy)pyridine Dihydrochloride] | 152 to 156 °C |
| CC(C)(C)C=CC=Cc1cc(OC[C@@H]2CCCN2)cnc1Cl (as salt: hydrochloride) [Example 148, 6-Chloro-5-(5,5dimethyl-1,3-hexadienyl)-3-(2-(S)-pyrrilidinylmethoxy)pyridine Dihydrochloride] | 206 to 208 °C |
| Cl.Cl.Clc1ccc(-c2cc(OC[C@@H]3CCCN3)cnc2Cl)cc1 [Example 150, 6-Chloro-5-(4-chlorophenyl)-3-(2-(S)-pyrrolidinylmethoxy)pyridine Dihydrochloride] | 86 to 89 °C |
| CN1CCC[C@H]1COc1cnc(Cl)c(-c2cccs2)c1.Cl.Cl [Example 153, 6-Chloro-3-(1-methyl-2-(S)-pyrrolidinylmethoxy)-5-(2-thienyl)pyridine Dihydrochloride] | 160 to 163 °C |
| Nc1cccc(-c2cncc(OC[C@@H]3CCN3)c2)c1 (as salt: salt) [Example 65, 5-(3-Aminophenyl)-3-(2-(S)-azetidinylmethoxy)pyridine Hidrochloride] | 85 to 87 °C |
| CN1CC[C@H]1COc1cncc(C=CC=CC(C)(C)C)c1 (as salt: hydrochloride) [Example 166, 5-(5,5-Dimethyl-1,3-hexadiene)-3-(1-methyl-2-(S)-azetidinylmethoxy)pyridine Dihydrochloride] | 143 to 145 °C |

Now from value to compound:

| melting point | Compound |
| --- | --- |
| 144 °C (dec.) | Cl.Cl.Clc1ncc(OC[C@@H]2CCN2)cc1-c1cncnc1 [Example 172, 3-(2-(S)-Azetidinylmethoxy)-6-chloro-5-(5-pyrimidinyl)pyridine Dihydrochloride] |
| 182 to 184 °C | COCCOc1cncc(OC[C@@H]2CCCN2)c1.Cl.Cl [Example 197, 5-Methoxyethoxy-3-(2-(S)-pyrrolidinylmethoxy)pyridine Dihydrochloride] |
| 182 to 184 °C | C=Cc1cc(OC[C@H]2CCCN2)cnc1Cl.Cl [Example 167, 6-Chloro-5-ethenyl-3-(2-(R)-pyrrolidinylmethoxy)pyridine Hydrochloride] |
| 200 to 202 °C | CN1CCC[C@H]1COc1cnc(Cl)c(-c2cncnc2)c1.Cl [Example 182, 6-Chloro-3-(1-methyl-2-(S)-pyrrolidinylmethoxy)-5-(5-pyrimidinyl)pyridine Hydrochloride] |
| 102 to 104 °C | C=Cc1ccc(OC[C@@H]2CCN2)cn1.Cl.Cl [Example 201, 3-(2-(S)-Azetidinylmethoxy)-6-ethenylpyridine Dihydrochloride] |
| 168 to 170 °C | C=Cc1ncc(OC[C@@H]2CCCN2)cc1C.Cl [Example 187, 6-Ethenyl-5-methyl-3-(2-(S)-pyrrolidinylmethoxy)pyridine Hydrochloride] |
